Reference: US10435398B2, “Oxazole orexin receptor antagonists” (MERCK SHARP & DOHME CORP., priority 2014, dated 2019)

Legend:
human orexin-1 receptor = human orexin-1 receptor (Homo sapiens (Human), UniProt O43613); assay: FLIPR Ca2+ Flux Assay, hOX1R; assay type: cell-based; conditions: CHO cells expressing human orexin-1 receptor; agonist 70 pM Ala-6,12 human orexin-A
Procedure: (§1) The utility of the compounds in accordance with the present invention as orexin receptor OX1R and/or OX2R antagonists may be readily determined without undue experimentation by methodology well known in the art, including the “FLIPR Ca^2+ Flux Assay” (Okumura et al., Biochem. Biophys. Res. Comm. 280:976-981, 2001). In a typical experiment the OX1 and OX2 receptor antagonistic activity of the compounds of the present invention was determined in accordance with the following experimental method. For intracellular calcium measurements, Chinese hamster ovary (CHO) cells expressing the rat or human orexin-1 receptor or the human orexin-2 receptor, are grown in Iscove's modified DMEM containing 2 mM L-glutamine, […], 1% hypoxanthine-thymidine supplement, 100 U/ml penicillin, 100 μg/ml streptomycin and 10% heat-inactivated fetal calf serum (FCS). The cells are seeded at 20,000 cells/well into Becton-Dickinson black 384-well clear bottom sterile plates coated with poly-D-lysine. All reagents were from GIBCO-Invitrogen Corp. The seeded plates are incubated overnight at 37° C. and 5% CO2. Ala-6,12 human orexin-A as the agonist is prepared as a 1 mM stock solution in 1% bovine serum albumin (BSA) and diluted in assay buffer (HBSS containing 20 mM HEPES, 0.1% BSA and 2.5 mM probenecid, pH7.4) for use in the assay at a final concentration of 70 pM. Test compounds are prepared as 10 mM stock solution in DMSO, then diluted in 384-well plates, first in DMSO, then assay buffer. On the day of the assay, cells are washed 3 times with 100 μl assay buffer and then incubated for 60 min (37° C., 5% CO2) in 60 μl assay buffer containing 1 μM Fluo-4AM ester, 0.02% pluronic acid, and 1% BSA. The dye loading solution is then aspirated and cells are washed 3 times with 100 μl assay buffer. 30 μl of that same buffer is left in each well. Within the Fluorescent Imaging Plate Reader (FLIPR, Molecular Devices), test compounds are added to the plate in a volume of 25 μl, incubated for 5 min and finally 25 μl of agonist is added. Fluorescence is measured for each well at 1 second intervals for 5 minutes and the height of each fluorescence peak is compared to the height of the fluorescence peak induced by 70 pM Ala-6,12 orexin-A with buffer in place of antagonist. For each antagonist, IC50 value (the concentration of compound needed to inhibit 50% of the agonist response) is determined. Alternatively, compound potency can be assessed by a radioligand binding assay (described in Bergman et. al. Bioorg. Med. Chem. Lett. 2008, 18, 1425-1430) in which the inhibition constant (Ki) is determined in membranes prepared from CHO cells expressing either the OX1 or OX2 receptor. The intrinsic orexin receptor antagonist activity of a compound which may be used in the present invention may be determined by these assays.

human orexin-2 receptor = human orexin-2 receptor (Homo sapiens (Human), UniProt O43614); assay: FLIPR Ca2+ Flux Assay, hOX2R; assay type: cell-based; conditions: CHO cells expressing human orexin-2 receptor; agonist 70 pM Ala-6,12 human orexin-A
Sequence of human orexin-2 receptor (O43614 whole entry): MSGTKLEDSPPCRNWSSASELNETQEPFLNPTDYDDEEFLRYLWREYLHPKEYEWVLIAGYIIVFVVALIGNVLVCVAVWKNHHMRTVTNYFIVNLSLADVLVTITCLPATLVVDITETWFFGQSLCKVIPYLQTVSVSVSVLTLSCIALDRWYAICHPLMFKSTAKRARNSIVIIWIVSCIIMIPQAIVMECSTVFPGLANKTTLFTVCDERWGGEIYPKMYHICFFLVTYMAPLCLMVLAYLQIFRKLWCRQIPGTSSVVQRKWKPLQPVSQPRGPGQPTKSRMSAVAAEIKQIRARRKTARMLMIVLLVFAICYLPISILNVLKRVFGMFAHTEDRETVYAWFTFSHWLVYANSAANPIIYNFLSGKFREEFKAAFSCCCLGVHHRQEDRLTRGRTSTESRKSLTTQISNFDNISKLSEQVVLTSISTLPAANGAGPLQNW
Procedure: as §1

Sequence of human orexin-1 receptor (O43613 whole entry): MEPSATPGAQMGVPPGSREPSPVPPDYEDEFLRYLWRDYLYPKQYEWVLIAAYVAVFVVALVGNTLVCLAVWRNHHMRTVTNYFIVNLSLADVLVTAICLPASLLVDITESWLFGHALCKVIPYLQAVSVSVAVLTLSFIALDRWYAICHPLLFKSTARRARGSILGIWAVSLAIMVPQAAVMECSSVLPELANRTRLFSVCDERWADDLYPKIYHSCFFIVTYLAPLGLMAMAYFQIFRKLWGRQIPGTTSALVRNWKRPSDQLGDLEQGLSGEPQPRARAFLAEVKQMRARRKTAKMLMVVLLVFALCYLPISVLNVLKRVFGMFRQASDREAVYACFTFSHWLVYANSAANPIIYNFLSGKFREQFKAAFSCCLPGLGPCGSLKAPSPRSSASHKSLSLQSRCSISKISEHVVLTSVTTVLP

For CCN(CCc1nc(C(C)(C)O)c(C)o1)C(=O)c1cccc(F)c1-n1nccn1 [Example 3, N-Ethyl-3-fluoro-N-{2-[4-(1-hydroxy-1-methylethyl)-5-methyl-1,3-oxazol-2-yl]ethyl}-2-(2H-1,2,3-triazol-2-yl)benzamide], the IC50 (human orexin-1 receptor) was over 10 µM and the IC50 (human orexin-2 receptor) was 0.044 µM.

In the case of CCOc1ccccc1C(=O)N(CC)CCc1nc(C(C)(C)O)c(C)o1 [Example 15, 2-Ethoxy-N-ethyl-N-{2-[4-(1-hydroxy-1-methylethyl)-5-methyl-1,3-oxazol-2-yl]ethyl}benzamide], the IC50 (human orexin-1 receptor) is reported as over 10 µM and the IC50 (human orexin-2 receptor) is reported as 0.223 µM.

Molecule CCN(CCc1nc(C(C)(C)O)c(C)o1)C(=O)c1ccccc1C1CC1 [Example 5, 2-Cyclopropyl-N-ethyl-N-{2-[4-(1-hydroxy-1-methylethyl)-5-methyl-1,3-oxazol-2-yl]ethyl}benzamide] has an IC50 (human orexin-1 receptor) of over 10 µM and an IC50 (human orexin-2 receptor) of 0.387 µM.

Work on CCN(CCc1nc(C(C)(C)O)c(C)o1)C(=O)c1ccccc1C(=O)OC [Example 16, Methyl 2-(ethyl{2-[4-(1-hydroxy-1-methylethyl)-5-methyl-1,3-oxazol-2-yl]ethyl}carbamoyl)benzoate] yielded an IC50 (human orexin-1 receptor) of over 10 µM and an IC50 (human orexin-2 receptor) of 0.63 µM.

Work on Cc1oc(CCN(C(=O)c2ccccc2-n2nccn2)C2CCC2)nc1C(C)(C)O [Example 32, N-Cyclobutyl-N-(2-(4-(2-hydroxypropan-2-yl)-5-methyloxazol-2-yl)ethyl)-2-(2H-1,2,3-triazol-2-yl)benzamide] yielded an IC50 (human orexin-1 receptor) of 8.18 µM and an IC50 (human orexin-2 receptor) of 0.038 µM.

In the case of CCN(CCc1nc(C(C)(C)O)c(C)o1)C(=O)c1cccc(C)c1-n1nccn1 [Example 2, N-Ethyl-N-{2-[4-(1-hydroxy-1-methylethyl)-5-methyl-1,3-oxazol-2-yl]ethyl}-3-methyl-2-(2H-1,2,3-triazol-2-yl)benzamide], the IC50 (human orexin-1 receptor) is reported as over 10 µM and the IC50 (human orexin-2 receptor) is reported as 0.054 µM.

CCN(CCc1nc(C(C)(C)O)c(C)o1)C(=O)c1ccc(OC)cc1-n1nccn1 [Example 8, N-Ethyl-N-{2-[4-(1-hydroxy-1-methylethyl)-5-methyl-1,3-oxazol-2-yl]ethyl}-4-methoxy-2-(2H-1,2,3-triazol-2-yl)benzamide] gave an IC50 (human orexin-1 receptor) of over 10 µM and an IC50 (human orexin-2 receptor) of 0.082 µM.

Work on CCN(CCc1nc(C(C)(O)C(C)C)c(C)o1)C(=O)c1ccccc1-n1nccn1 (stereo not drawn) [Example 20, N-Ethyl-N-{2-[4-(1-hydroxy-1,2-dimethylpropyl)-5-methyl-1,3-oxazol-2-yl]ethyl}-2-(2H-1,2,3-triazol-2-yl)benzamide] yielded an IC50 (human orexin-1 receptor) of 2.67 µM and an IC50 (human orexin-2 receptor) of 0.019 µM.

CCN(CCc1nc(C(C)(C)O)c(C)o1)C(=O)c1ccccc1C1(C(F)F)CC1 [Example 18b, 2-(1-(difluoro-methyl)cyclopropyl)-N-ethyl-N-(2-(4-(2-hydroxypropan-2-yl)-5-methyloxazol-2-yl)ethyl)benzamide] was tested, and the IC50 (human orexin-1 receptor) was over 10 µM and the IC50 (human orexin-2 receptor) was 0.145 µM.
